Tests used:
[1] = CT imaging of IB contrast injection (marrow flow, venous drainage, leakage); type: in vivo, domestic swine (Sus scrofa domesticus)
Procedure: To evaluate flow through the bone marrow cavity, abdominal vessels were identified using iopamidol-370 contrast injected into the distal abdominal aorta via a 5Fr Glidecath (Terumo Medical Corporation, Somerset, N.J.) inserted in the internal carotid artery. To evaluate the anatomy of the veins, iopamidol-370 contrast was injected IB under anesthesia (boluses of 5 or 10 ml at rates of 0.1 to 2.5 ml/s) while scanning with 320-row detector CT (Aquilion ONE™, Toshiba Medical, Japan). Pulmonary artery, carotid artery and intra-marrow pressures were monitored and recorded continuously both during and after injection of contrast media. In select animals, vascular occluders (In Vivo Metric, Healdsburg, Calif.) were placed around the terminal branches of the abdominal aorta to selectively control flow through the internal or external iliac arteries, and around the iliac veins to control venous drainage from the pelvis. […]
To evaluate flow through the marrow and venous drainage, direct intra-bone injection into the hemipelvis with iopamidol-370 contrast was performed under anesthesia with dynamic CT images acquired using a 320-detector row scanner (Aquilion One, Toshiba Medical, Japan). Human CD34+ and swine BM MNCs were labeled with Zirconium-89 (^89Zr), and were then assessed for viability, cell number, and the level of cellular radioactivity.

[2] = PET/CT in vivo distribution of radioactivity after IV, IB or intra-arterial administration in swine; set-up: species or system domestic swine (Sus scrofa domesticus)
Procedure: Animals were heparinzed to an ACT of 300 seconds or greater and were started with deferoxamine IV infusion (5 mg/kg/hr) to chelate any free ^89Zr that may potentially be released from fragmented cells. PET scans were performed using a Gemini TF clinical PET/CT scanner (Philips Medical Systems, Andover, Mass.). Following injection, animals were imaged in 3-dimensional (3D) time-of-flight mode with a spatial resolution of 4.8 mm at the center of the field of view. The images were reconstructed using the default row-action maximum-likelihood algorithm iterative reconstruction, with standard corrections for random, scatter, attenuation, and normalization. Three volumes of interest (VOI) were manually drawn within the swine PET/CT scans. One VOI enclosing the intra-pelvic bone volume near the injection site, another VOI enclosing the extra-pelvic bone volume and the last VOI for the lung volume. The sum of measured activities of the three volumes equals the total injected radioactivity into the swine. Thus, the percent-injected dose (% ID) within each VOI was estimated by dividing each VOI by the sum of the three VOIs and multiplying by 100. The percent-injected dose for each of the three regions is reported herein.

[3] = Control group, IB injection without cells, pig 32590, after the first hour

Row | Molecule | Contrast distribution on CT ([1]; IB injection at rates exceeding 0.2 ml/s, volumes >10 ml, or by hand) | Contrast distribution on dynamic CT ([1]; manual sequential hand intra-bone injection of 5 ml aliquots at two sites in the ipsilateral iliac crest) | Extra-pelvic bone VOI (Max) [2, 3] | Extra-pelvic bone VOI (Mean) [2, 3] | Intra-pelvic bone % ID [2, 3] | Intra-pelvic bone VOI (Max) [2, 3] | Intra-pelvic bone VOI (Mean) [2, 3] | Intra-pelvic bone total radioactivity [2, 3] | Lung % ID [2, 3] | Lung VOI (Mean) [2, 3] | Lung total radioactivity [2, 3] | Intra-pelvic bone % ID ([2]; Control group, IB injection without cells, pig 32590, after the first hour, listed as 89Zr—Df) | Location of radioactivity, fusion PET/CT ([2]; IB injection without cells, 1 hr) | Radioactivity within the renal collecting system, ureters and bladder ([2]; IB injection without cells, first hour) | Excretion of radioactivity ([2]; IV injection without cells) | Retention in the lungs ([2]; IV or IB administration without cells, first hour)
1 | C[C@H](O)C(=O)Nc1c(I)c(C(=O)NC(CO)CO)c(I)c(C(=O)NC(CO)CO)c1I [iopamidol-370 contrast, iopamidol-370] | extrabone contrast leakage at the site of injection | leakage from the initial access site after the first injection as well as immediate drainage into the ipsilateral iliac vein |  |  |  |  |  |  |  |  |  |  |  |  |  | 
2 | ^89Zr-deferoxamine [^89Zr-Df] |  |  | 91.45 | 15.32 | 33.5 % ID | 338.9 | 314.42 | 1085.85 counts | 0.0% ID | 0 | 0 counts | 33.5% ID | radioactivity in the renal pelvises and bladder | 66.5 % ID | rapid renal excretion | no retention
